The values below are quoted from earlier work in US20250339390A1 (priority 2018, published 2025).

Structures are written as SMILES.

As to `O=NN(CCCl)C(=O)NCCCl` [Carmustine, 1,3-bis(2-chloroethyl)-1-nitrosourea], the solubility in water result is recorded as “poorly soluble”.
